In experiment [1] the test system is M.smegmatis expressing M.tb PpiB (Ms_PpiB) and vector control (Ms_VC). It counts as cell-based, Mycobacterium smegmatis.
For experiment [2], the system named is M. smegmatis (Ms_VC and Ms_PpiB). It counts as cell-based, Mycobacterium smegmatis.
Experiment [3] concerns E. coli. Conditions: cited from earlier work. From the text: Acarbose is widely used for the management of type 2 Diabetes mellitus as well. […] There are several bacteria that are invol ...
Experiment [4] relates to M. smegmatis (Ms_VC and Ms_PpiB). The class given is cell-based, Mycobacterium smegmatis. This is another data set of the same source.
In experiment [5] the test system is M.tb PpiB. The experiment in a line: Surface plasmon resonance (SPR). The class given is binding, Mycobacterium tuberculosis. Conditions: rPpiB immobilised on CM5 sensor chip, PBS, association 300 s, dissociation 150 s. In general terms: SPR reads the build-up and loss of mass on a sensor chip optically.
Experiment [6] has as its system M. smegmatis (Ms_VC and Ms_PpiB). It counts as cell-based, Mycobacterium smegmatis. This is another data set of the same source.
The test system is the same in experiment [7]. It counts as cell-based, Mycobacterium smegmatis. Conditions: for bacteriostatic effect at 100 µg/ml: up to 120 h; for Concentration up to which effect is bacteriostatic: 120 h as compared to 72 h; for bacteriostatic or bactericidal effect: M. smegmatis, summary statement.
For experiment [8] the following is noted: cited from earlier work. From the text:
Our next step was to identify suitable drug(s) that could act as an inhibitor of PpiB protein. Developing new drugs is a long process taking about 10–15 years. Drug repurposing is gaining popularity as it allows bypassing of the cumbersome clinical trial of drugs for which the parameters of toxicity and effectiveness have already been tested and approved.

Experiment [9] has as its system M. smegmatis (Ms_VC and Ms_PpiB). To be noted: general statement, no reference given; cited from earlier work.
The test system is the same in experiment [10]. To be noted: general statement, no reference given; cited from earlier work. The source holds these as a separate data set.
Experiment [11] has as its system P.aeruginosa. Conditions: cited from earlier work. From the text:
The presence of extracellular M.tb within biofilm like structure inside lung lesions of M.tb infected guinea pigs undergoing antibiotic treatment points to the possibility of biofilm formation within the host tissues.[7] Peptidyl-prolyl isomerases (PPIase), popularly known as cyclophilins, are ubiquitously expressed protein foldases which aid in protein folding or refolding by ...

The subject of experiment [12] is C.parapsilosis. To be noted: cited from earlier work.
The test system of experiment [13] is M.tuberculosis H37Rv. The class given is cell-based, Mycobacterium tuberculosis.
Experiment [14] deals with Prokaryotic cyclophilins. To be noted: cited from earlier work.
For experiment [15], the system named is Candida albicans. To be noted: cited from earlier work.

Consider eight molecules from paper PMC6333787, “Peptidyl-prolyl isomerase-B is involved in Mycobacterium tuberculosis biofilm formation and a generic target for drug repurposing-based intervention” (NPJ Biofilms and Microbiomes, 2019).

“Also recorded” adds a separate entry of the source. Read-outs that look alike come from different tables or passages of the source. A value given as a limit tells only on which side of the number the result lay.

`C[C@H]1O[C@H](O[C@H]2[C@H](O)[C@@H](O)[C@@H](O[C@H]3[C@H](O)[C@@H](O)C(O)O[C@@H]3CO)O[C@@H]2CO)[C@H](O)[C@@H](O)[C@@H]1N[C@H]1C=C(CO)[C@@H](O)[C@H](O)[C@H]1O` (stereo partly drawn) [Acarbose, acarbose]: in experiment [1], the “biofilm formation, induced PpiB tet+” value was “significant decrease in biofilm formation”. Also, the “biofilm formation, acarbose 500 µg/ml and above” value in experiment [1] (500 µg/ml and above) is on record as “inhibited biofilm formation”. Further, the “biofilm formation, uninduced PpiB tet-” value in [1] (Ms_PpiB uninduced by anhydrotetracycline (PpiB tet-)) is listed as “did not exhibit any significant change”. Besides, the “biofilm formation, Ms_VC cells” value in experiment [1] (Ms_VC, presence or absence of agent) is given as “only basal levels of biofilm formation”. Further, the “biofilm formation, 500 and 1000 µg/ml” value in experiment [1] (acarbose 500 and 1000 µg/ml, Ms_PpiB, compared to no acarbose, 7 days) was “significant inhibition in the biofilm formation”. Moreover, the “biofilm formation, lower concentrations” value in [1] (acarbose at lower concentrations, VC tet- and PpiB tet-, "Hormetic effect") is recorded as “transient increase in biofilm formation”. The “biofilm formation, acarbose upto 100 µg/ml” value in experiment [1] (lower concentration (upto 100 µg/ml)) is reported as “increase in biofilm formation”. Besides, the “efficacy in decreasing the dosage of ethambutol” value in experiment [2] (acarbose, data not shown) is “insignificant”. Besides, in [3], the “maltose importer block and growth of E. coli” value was “block maltose importer and consequently suppress growth of E. coli”. Moreover, in [4] (10 mg/ml, data not shown), the “viability, acarbose 10 mg/ml” value is “no significant effect”. Besides, in experiment [4] (M. smegmatis expressing PpiB, alamar blue), the “Threshold concentration at which viability was not significantly affected” value amounted to 1000 µg/mL. Moreover, the “viability, acarbose up to 1000 µg/ml” value in experiment [4] (up to 1000 µg/ml, Ms_VC or Ms_PpiB) was “no effect”. In addition, the SPR interaction entry in [5] was “interact with M.tb PpiB in a dose dependent manner and bind with high affinity”. The “reduction in dosage of anti-TB drugs” value in [6] (co-treatment, isoniazid/ethambutol) is given as “at least two-fold”. Moreover, in [7], the “bacteriostatic effect at 100 µg/ml” value is “bacteriostatic effect”, the “Concentration up to which effect is bacteriostatic” value was at most 1000 µg/mL and the “bacteriostatic or bactericidal effect” value was “bacteriostatic effect; also recorded: bacteriostatic activity”.
As to `Cc1ccc(-c2cc(C(F)(F)F)nn2-c2ccc(S(N)(=O)=O)cc2)cc1` [Celebrex], in experiment [8], the “repurposing outcome in patients” value is reported as “decreasing polyp formation in colon cancer patients”.
For the molecule `CC[C@@H](CO)NCCN[C@@H](CC)CO` [Ethambutol, ethambutol], in [2], the “dosage of ethambutol with cyclosporine-A” value came out at 4 µg/mL. Also, the “dosage of ethambutol, control without GaNP” value in experiment [2] (Fig. 4e, control) was found to be 16 µg/mL. For the same molecule, the “dosage of ethambutol, absence of cyclosporine-A” value in experiment [2] (Fig. 4d, PpiB tet+, 68 h) was determined as 16 µg/mL. In [2] (GaNP 50 µg/ml, Fig. 4e), the “dosage of ethambutol with GaNP” value came out at 1 µg/mL. Besides, the “dosage of ethambutol, normally effective” value in [9] was 1 µg/mL.
As for `NNC(=O)c1ccncc1` [Isoniazid, isoniazid], the “dosage of isoniazid, normally effective” value in experiment [10] is 16 µg/mL. In addition, in [6], the “dosage of isoniazid with cyclosporine-A” value was 32 µg/mL and the “fold decrease in dosage of isoniazid” value is recorded as 2–4 fold. For the same molecule, the “dosage of isoniazid, absence of cyclosporine-A” value in experiment [6] (Fig. 4a, PpiB tet+ biofilm, 7 days then 68 h isoniazid) is 64 µg/mL. In addition, the “dosage of isoniazid, absence of acarbose” value in experiment [6] (Fig. 4b, PpiB (tet+), 68 h) was determined as 64 µg/mL. The “dosage of isoniazid with GaNP” value in experiment [6] (GaNP 50 µg/ml, Fig. 4c, 68 h) came to 16 µg/mL. Also, the “dosage of isoniazid with acarbose” value in experiment [6] (acarbose 500 µg/ml, Fig. 4b, PpiB (tet+), 68 h) amounted to 32 µg/mL.
`CCN(CC)CCCC(C)Nc1ccnc2cc(Cl)ccc12` (stereo not drawn) [chloroquine]: in experiment [8], the “repurposing outcome in patients” value is on record as “improving outcome of cancer drug Erlotinib”.
As for `CN(C)C(=N)N=C(N)N` [metformin], the “repurposing outcome in patients” value in experiment [8] is on record as “lowering morbidity of TB patients”.
As to `O=C(Nc1ccc([N+](=O)[O-])cc1Cl)c1cc(Cl)ccc1O` [niclosamide], the “effect against P.aeruginosa biofilm” value in [11] is “inhibitory effects against biofilms formed by P.aeruginosa”.
On to cyclosporine-A, for which, in [1], the “biofilm formation, 100 µg/ml” value is recorded as “significant decrease (p < 0.05) in biofilm formation”; the “biofilm formation, 1000 µg/ml” value is given as “complete inhibition of biofilm formation (p < 0.005)”; the “biofilm formation, Ms_VC cells” value is “only basal levels of biofilm formation”; the “biofilm formation, induced PpiB tet+” value is “significant decrease in biofilm formation”. The “biofilm formation, uninduced PpiB tet-” value in experiment [1] is given as “did not exhibit any significant change”. For the same molecule, the “synergy with antifungals against C.parapsilosis” value in [12] is given as “acts synergistically to improve the efficacy of antifungals against C.parapsilosis”. Also, in experiment [13], the “biofilm formation in H37Rv, cyclosporine-A” value is listed as “significant reduction (Fig. 5a) in biofilm formation” and the “effect on H37Rv biofilm formation” value is given as “disrupted M.tb H37Rv biofilm formation; also recorded: Suppressive effect”. Besides, the “decrease in ethambutol dosage with cyclosporine-A” value in experiment [2] is listed as “decreased four-fold”. Also, in experiment [4], the “Threshold concentration at which viability was not significantly affected” value stood at 100 µg/mL and the “viability, cyclosporine-A below 250 µg/ml” value is “insignificant effect”. In experiment [5], the SPR interaction entry is “interact with M.tb PpiB in a dose dependent manner and bind with high affinity”. The “reduction in dosage of anti-TB drugs” value in [6] is “at least two-fold”. In experiment [14], the “affinity for prokaryotic cyclophilins” value was “weak affinity”. Also, in experiment [7], the “bacteriostatic effect at 100 µg/ml” value was “bacteriostatic effect” and the “Concentration up to which effect is bacteriostatic” value is at most 500 µg/mL. For the same molecule, in [7] (listed as cyclosporine A), the “bacteriostatic or bactericidal effect” value is given as “bacteriostatic activity”. For the same molecule, the “bacteriostatic or bactericidal effect” value in experiment [7] (listed as cyclosporine-A) is listed as “bacteriostatic effect”. In experiment [15], the “combination with fluconazole against C.albicans biofilms” value is reported as “effective against biofilms formed by C.albicans”, the “sensitisation of C. albicans biofilm to antifungal drugs” value is “sensitises drug-tolerant biofilm of Candida albicans to various antifungal drugs” and the “sensitivity of C.albicans to fluconazole” value is recorded as “imparts sensitivity to C.albicans towards fluconazole”.
